Tests used:
Rattus norvegicus [1] = assay: Distribution of the radioiodinated compound expressed as percent dose per gram, in brain of unfasted rats after 5 mins of intravenous administration (11.5 uCi/animal); value ranges from 2.57-3.59 % dose/g; type: ADME, organism-based; details: in vivo
Rattus norvegicus [2] = assay: Distribution of the radioiodinated compound expressed as percent dose per gram, in liver of unfasted rats after 60 mins of intravenous administration (11.5 uCi/animal); value ranges from 0.61-0.81 % dose/g; type: ADME, organism-based; details: in vivo, 1 h
Rattus norvegicus [3] = assay: Distribution of the radioiodinated compound expressed as percent dose per gram, in lungs of unfasted rats after 30 mins of intravenous administration (11.5 uCi/animal); value ranges from 0.51-3.71 % dose/g; type: ADME, organism-based, Lung; details: in vivo, 0.5 h
Rattus norvegicus [4] = assay: Distribution of the radioiodinated compound expressed as percent dose per gram, in lungs of unfasted rats after 5 mins of intravenous administration (11.5 uCi/animal); value ranges from 5.92-8.51% dose/g; type: ADME, organism-based, Lung; details: in vivo
Rattus norvegicus [5] = assay: Distribution of the radioiodinated compound expressed as percent dose per gram, in lungs of unfasted rats after 60 mins of intravenous administration (11.5 uCi/animal); value ranges from 1.87-2.12 % dose/g; type: ADME, organism-based, Lung; details: in vivo, 1 h
Rattus norvegicus [6] = assay: Distribution of the radioiodinated compound expressed as percent dose per gram, in thyroid of unfasted rats after 30 mins of intravenous administration (11.5 uCi/animal); value ranges from 5.03-36.88 % dose/g; type: ADME, organism-based, Thyroid gland; details: in vivo, 0.5 h
Rattus norvegicus [7] = assay: Distribution of the radioiodinated compound expressed as percent dose per gram, in thyroid of unfasted rats after 5 mins of intravenous administration (11.5 uCi/animal); value ranges from 7.87-16.51 % dose/g; type: ADME, organism-based, Thyroid gland; details: in vivo
Rattus norvegicus [8] = assay: Distribution of the radioiodinated compound expressed as percent dose per gram, in thyroid of unfasted rats after 60 mins of intravenous administration (11.5 uCi/animal); value ranges from 31.90-39.98 % dose/g; type: ADME, organism-based, Thyroid gland; details: in vivo, 1 h
Rattus norvegicus [9] = assay: Distribution of the radioiodinated compound expressed as percent dose per organ, in thyroid of unfasted rats after 30 mins of intravenous administration (11.5 uCi/animal); value ranges from 0.05-0.38 % dose/g; type: ADME, organism-based, Thyroid gland; details: in vivo, 0.5 h
Rattus norvegicus [10] = assay: Distribution of the radioiodinated compound expressed as percent dose per organ, in thyroid of unfasted rats after 5 mins of intravenous administration (11.5 uCi/animal); value ranges from 0.08-0.17 % dose/g; type: ADME, organism-based, Thyroid gland; details: in vivo
Rattus norvegicus [11] = assay: Distribution of the radioiodinated compound expressed as percent dose per gram, in blood of unfasted rats after 5 mins of intravenous administration (11.5 uCi/animal); value ranges from 0.28-0.37% dose/g; type: ADME, organism-based; details: in vivo
Rattus norvegicus [12] = assay: Distribution of the radioiodinated compound expressed as percent dose per gram, in blood of unfasted rats after 60 mins of intravenous administration (11.5 uCi/animal); value ranges from % dose/g; type: ADME, organism-based; details: in vivo, 1 h
Rattus norvegicus [13] = assay: Distribution of the radioiodinated compound expressed as percent dose per gram, in brain of unfasted rats after 30 mins of intravenous administration (11.5 uCi/animal); value ranges from 0.16-1.76 % dose/g; type: ADME, organism-based; details: in vivo, 0.5 h
Rattus norvegicus [14] = assay: Distribution of the radioiodinated compound expressed as percent dose per organ, in thyroid of unfasted rats after 60 mins of intravenous administration (11.5 uCi/animal); value ranges from 0.99-1.40 % dose/g; type: ADME, organism-based, Thyroid gland; details: in vivo, 1 h
Rattus norvegicus [15] = assay: Distribution of the radioiodinated compound expressed as percent dose per gram, in brain of unfasted rats after 60 mins of intravenous administration (11.5 uCi/animal); value ranges from 0.81-1.08 % dose/g; type: ADME, organism-based; details: in vivo, 1 h
Rattus norvegicus [16] = assay: Distribution of the radioiodinated compound expressed as percent dose per gram, in heart of unfasted rats after 30 mins of intravenous administration (11.5 uCi/animal); value ranges from 0.06-0.53 % dose/g; type: ADME, organism-based; details: in vivo, 0.5 h
Rattus norvegicus [17] = assay: Distribution of the radioiodinated compound expressed as percent dose per gram, in heart of unfasted rats after 5 mins of intravenous administration (11.5 uCi/animal); value ranges from 0.85-1.13 % dose/g; type: ADME, organism-based; details: in vivo
Rattus norvegicus [18] = assay: Distribution of the radioiodinated compound expressed as percent dose per gram, in heart of unfasted rats after 60 mins of intravenous administration (11.5 uCi/animal); value ranges from 0.33-0.42 % dose/g; type: ADME, organism-based; details: in vivo, 1 h
Rattus norvegicus [19] = assay: Distribution of the radioiodinated compound expressed as percent dose per gram, in kidney of unfasted rats after 30 mins of intravenous administration (11.5 uCi/animal); value ranges from 0.15-1.43 % dose/g; type: ADME, organism-based; details: in vivo, 0.5 h
Rattus norvegicus [20] = assay: Distribution of the radioiodinated compound expressed as percent dose per gram, in kidney of unfasted rats after 5 mins of intravenous administration (11.5 uCi/animal); value ranges from 2.12-3.14 % dose/g; type: ADME, organism-based; details: in vivo
Rattus norvegicus [21] = assay: Distribution of the radioiodinated compound expressed as percent dose per gram, in kidney of unfasted rats after 60 mins of intravenous administration (11.5 uCi/animal); value ranges from 0.74-0.85 % dose/g; type: ADME, organism-based; details: in vivo, 1 h
Rattus norvegicus [22] = assay: Distribution of the radioiodinated compound expressed as percent dose per gram, in liver of unfasted rats after 5 mins of intravenous administration (11.5 uCi/animal); value ranges from 1.64-2.38 % dose/g; type: ADME, organism-based; details: in vivo
Rattus norvegicus [23] = assay: Distribution of the radioiodinated compound expressed as percent dose per gram, in blood of unfasted rats after 30 mins of intravenous administration (11.5 uCi/animal); value ranges from 0.06-0.63 % dose/g; type: ADME, organism-based; details: in vivo, 0.5 h
Rattus norvegicus [24] = species on record: Rattus norvegicus; assay: Specific activity of the radioiodinated compound was determined in rats; type: functional
Rattus norvegicus [25] = assay: Distribution of the radioiodinated compound expressed as percent dose per gram, in liver of unfasted rats after 30 mins of intravenous administration (11.5 uCi/animal); value ranges from 0.08-0.90 % dose/g; type: ADME, organism-based; details: in vivo, 0.5 h

CC(C)NC(C)Cc1ccc(I)s1 (racemic)
Distribution (Rattus norvegicus [1]): 3.18 % dose g-1
Distribution (Rattus norvegicus [2]): 0.07 % dose g-1
Distribution (Rattus norvegicus [3]): 2.76 % dose g-1
Distribution (Rattus norvegicus [4]): 7.01 % dose g-1
Distribution (Rattus norvegicus [5]): 1.97 % dose g-1
Distribution (Rattus norvegicus [6]): 26.26 % dose g-1
Distribution (Rattus norvegicus [7]): 12.51 % dose g-1
Distribution (Rattus norvegicus [8]): 36.45 % dose g-1
Distribution (Rattus norvegicus [9]): 0.28 % dose organ-1
Distribution (Rattus norvegicus [10]): 0.13 % dose organ-1
Distribution (Rattus norvegicus [11]): 0.31 % dose g-1
Distribution (Rattus norvegicus [12]): 0.6 % dose g-1
Distribution (Rattus norvegicus [13]): 1.37 % dose g-1
Distribution (Rattus norvegicus [14]): 1.24 % dose organ-1
Distribution (Rattus norvegicus [15]): 0.95 % dose g-1
Distribution (Rattus norvegicus [16]): 0.42 % dose g-1
Distribution (Rattus norvegicus [17]): 0.94 % dose g-1
Distribution (Rattus norvegicus [18]): 0.37 % dose g-1
Distribution (Rattus norvegicus [19]): 1.04 % dose g-1
Distribution (Rattus norvegicus [20]): 2.72 % dose g-1
Distribution (Rattus norvegicus [21]): 0.79 % dose g-1
Distribution (Rattus norvegicus [22]): 2.06 % dose g-1
Distribution (Rattus norvegicus [23]): 0.49 % dose g-1
Activity (Rattus norvegicus [24]): 40 mCi animal-1
Distribution (Rattus norvegicus [25]): 0.71 % dose g-1

Source: ChEMBL document CHEMBL1126144, “Synthesis and evaluation of radioiodinated 2-(2(RS)-aminopropyl)-5- iodothiophenes as brain imaging agents” (J Med Chem, 1992)
